Test results taken from patent US7994334B2, “Fungicide pyridinyloxy substituted phenylamidine derivatives” (Bayer Cropscience AG, priority 2005, dated 2011).

Experiment: logP by HPLC on reversed-phase column (C 18), EEC Directive 79/831 Annex V.A8
Type: physicochemical
Conditions: C 18, 40° C., 0.1% aqueous formic acid and acetonitrile
Experimental: Temperature: 40° C.; Mobile phases: 0.1% aqueous formic acid and acetonitrile; linear gradient from 10% acetonitrile to 90% acetonitrile.

Row | logPa | Structure (SMILES)
1 | 2.21 | CCN(C)C=Nc1ccc(Oc2ncc(C(F)(F)F)cc2Cl)cc1C [Example 2]
2 | 2.20 | CCN(C)C=Nc1ccc(Oc2cc(C(F)(F)F)cc(Cl)n2)cc1C [Example 4]
3 | 2.36 | CCN(C)C=Nc1cc(C)c(Oc2ccc(C(F)(F)F)c(Cl)n2)cc1C [Example 6]
4 | 2.22 | Cc1cc(Oc2cc(C(F)(F)F)cc(Cl)n2)ccc1N=CN(C)C(C)C [Example 7]
5 | 1.84 | CCN(C)C=Nc1cc(C)c(Oc2ccc(Cl)cn2)cc1C [Example 8]
6 | 1.79 | CCN(C)C=Nc1ccc(Oc2ccc(C(F)(F)F)cn2)cc1C [Example 9]
7 | 1.86 | CCN(C)C=Nc1cc(C)c(Oc2ccc(C(F)(F)F)cn2)cc1C [Example 10]
8 | 2.11 | CCN(C)C=Nc1cc(C)c(Oc2ccc(C(F)(F)F)c(Cl)n2)cc1C [Example 11]
9 | 2.52 | Cc1cc(Oc2cc(C(F)(F)F)cc(Cl)n2)c(C)cc1N=CN(C)C(C)C [Example 12]
10 | 2.51 | Cc1cc(Oc2ccc(C(F)(F)F)c(Cl)n2)c(C)cc1N=CN(C)C(C)C [Example 13]
11 | 2.10 | CCN(C)C=Nc1cc(C)c(Oc2ccc(I)cn2)cc1C [Example 14]
12 | 2.59 | CCN(C=Nc1cc(C)c(Oc2cc(C(F)(F)F)cc(Cl)n2)cc1C)CC [Example 18]
13 | 2.66 | CCCN(C)C=Nc1cc(C)c(Oc2cc(C(F)(F)F)cc(Cl)n2)cc1C [Example 19]
14 | 3.17 | Cc1cc(Oc2cc(C(F)(F)F)cc(Cl)n2)c(C(C)(C)C)cc1N=CN(C)C(C)C [Example 20]
15 | 2.97 | Cc1cc(Oc2cc(C(F)(F)F)cc(Cl)n2)c(C(C)C)cc1N=CN(C)C(C)C [Example 21]
16 | 2.83 | CCN(C)C=Nc1cc(C(C)(C)C)c(Oc2cc(C(F)(F)F)cc(Cl)n2)cc1C [Example 22]
17 | 1.58 | CCN(C)C=Nc1cc(C)c(Oc2cc(Cl)cc(C)n2)cc1C [Example 23]
18 | 2.87 | CCN(C)C=Nc1cc(C(C)C)c(Oc2cc(C(F)(F)F)cc(Cl)n2)cc1C [Example 24]
19 | 2.19 | CCN(C)C=Nc1cc(C)c(Oc2cc(C(F)(F)F)cc(C)n2)cc1C [Example 25]
20 | 1.78 | CCN(C)C=Nc1cc(C)c(Oc2cccc(Cl)n2)cc1C [Example 26]
21 | 1.96 | CCN(C)C=Nc1cc(C)c(Oc2cc(C(F)(F)F)ccn2)cc1C [Example 27]

Row | logPa | Structure (SMILES)
22 | 2.00 | CCN(C)C=Nc1cc(C)c(Oc2ncc(Cl)cc2Cl)cc1C [Example 28]
23 | 2.97 | CCCc1cc(CCC)nc(Oc2cc(C)c(N=CN(C)CC)cc2C)c1 [Example 30]
24 | 1.42 | CCN(C)C=Nc1cc(C)c(Oc2cc(C#N)ccn2)cc1C [Example 31]
25 | 2.18 | CCN(C)C=Nc1cc(C)c(Oc2cc(Cl)cc(C(C)C)n2)cc1C [Example 33]
26 | 2.34 | Cc1cc(Oc2cc(Cl)cc(C(C)C)n2)c(C)cc1N=CN(C)C(C)C [Example 34]
27 | 2.00 | CCCN(C)C=Nc1cc(C)c(Oc2cc(Cl)cc(CC)n2)cc1C [Example 42]
28 | 2.29 | Cc1cc(Oc2ncc(C(F)(F)F)cc2Cl)c(C)cc1N=CN(C)C(C)C [Example 43]
29 | 2.15 | CCN(C)C=Nc1cc(C)c(Oc2ncc(C(F)(F)F)cc2Cl)cc1C [Example 44]
30 | 1.98 | CCc1cc(Cl)cc(Oc2cc(C)c(N=CN(C)CC)cc2C)n1 [Example 48]
31 | 2.01 | CCN(C)C=Nc1cc(C)c(Oc2ccc(C)c(Cl)n2)cc1C [Example 49]
32 | 2.17 | CCCN(C)C=Nc1cc(C)c(Oc2ccc(C)c(Cl)n2)cc1C [Example 51]
33 | 2.35 | CCCN(C)C=Nc1cc(C)c(Oc2cc(Cl)cc(C(C)C)n2)cc1C [Example 54]
34 | 1.75 | CCN(C)C=Nc1cc(C)c(Oc2cc(Cl)ccn2)cc1C [Example 56]
35 | 1.89 | CCN(C)C=Nc1cc(C)c(Oc2cccc(Br)n2)cc1C [Example 57]
36 | 1.98 | CCN(C)C=Nc1cc(C)c(Oc2cccc(C(F)(F)F)n2)cc1C [Example 61]
37 | 2.31 | CCN(C)C=Nc1cc(C)c(Oc2cc(C(F)(F)F)c(F)c(F)n2)cc1C [Example 62]
38 | 2.48 | CCCN(C)C=Nc1cc(C)c(Oc2cc(C(F)(F)F)c(F)c(F)n2)cc1C [Example 63]
39 | 1.82 | CCN(C)C=Nc1cc(C)c(Oc2cncc(Cl)c2)cc1C [Example 67]
40 | 1.45 | CCN(C)C=Nc1cc(C)c(Oc2ccnc(Cl)c2)cc1C [Example 69]
41 | 1.75 | CCN(C)C=Nc1cc(C)c(Oc2ccnc(C(F)(F)F)c2)cc1C [Example 77]
42 | 1.75 | CCCN(C)C=Nc1cc(C)c(Oc2ccnc(C(F)(F)F)c2)cc1C [Example 78]

The remaining lines, values behind:

Row | Structure (SMILES) | logPa
43 | CCN(C)C=Nc1ccc(Oc2cc(Cl)ccn2)cc1C [Example 3] | 1.50
44 | CCN(C)C=Nc1ccc(Oc2ccc(Cl)cn2)cc1C [Example 5] | 1.58
45 | CCN(C)C=Nc1cc(C)c(Oc2cc(-c3ccccc3Cl)c(C)cn2)cc1C [Example 15] | 2.58
46 | CCN(C)C=Nc1ccc(Oc2cc(-c3ccccc3Cl)c(C)cn2)cc1C [Example 16] | 2.39
47 | CCN(C)C=Nc1ccc(Oc2ccc(I)cn2)cc1C [Example 17] | 1.87
48 | CCCN(C)C=Nc1cc(C)c(Oc2ncc(Cl)cc2Cl)cc1C [Example 29] | 2.22
49 | Cc1cc(Oc2ncc(Cl)cc2Cl)c(C)cc1N=CN(C)C(C)C [Example 32] | 2.24
50 | CCN(C)C=Nc1cc(C)c(Oc2ccc(C#N)cn2)cc1C [Example 35] | 1.47
51 | CCCN(C)C=Nc1cc(C)c(Oc2ccc(C#N)cn2)cc1C [Example 36] | 1.63
52 | C=CCN(C)C=Nc1cc(C)c(Oc2ccc(C#N)cn2)cc1C [Example 37] | 1.56
53 | Cc1cc(Oc2ccc(C#N)cn2)c(C)cc1N=CN1CCCCC1 [Example 38] | 1.58
54 | Cc1cc(Oc2ccc(C#N)cn2)c(C)cc1N=CN1CCCC1 [Example 39] | 1.46
55 | CCc1cc(Cl)cc(Oc2cc(C)c(N=CN3CCCCC3)cc2C)n1 [Example 40] | 2.04
56 | CCc1cc(Cl)cc(Oc2cc(C)c(N=CN3CCCC3)cc2C)n1 [Example 41] | 1.95
57 | CCN(C)C=Nc1cc(C)c(Oc2cccc(-c3ccc(Cl)cc3)n2)cc1C [Example 45] | 2.66
58 | Cc1cc(Oc2cccc(Cl)n2)c(C)cc1N=CN1CCCC1 [Example 46] | 1.81
59 | Cc1cc(Oc2cccc(Cl)n2)c(C)cc1N=CN1CCCCC1 [Example 47] | 1.96
60 | Cc1cc(Oc2ccc(C)c(Cl)n2)c(C)cc1N=CN1CCCCC1 [Example 50] | 2.21

Row | Structure (SMILES) | logPa
61 | Cc1cc(Oc2ccc(C)c(Cl)n2)c(C)cc1N=CN1CCCC1 [Example 52] | 2.05
62 | Cc1cc(Oc2cc(Cl)cc(C(C)C)n2)c(C)cc1N=CN1CCCCC1 [Example 53] | 2.34
63 | Cc1cc(Oc2cc(Cl)cc(C(C)C)n2)c(C)cc1N=CN1CCCC1 [Example 55] | 2.22
64 | CCCN(C)C=Nc1cc(C)c(Oc2cccc(Br)n2)cc1C [Example 58] | 2.04
65 | Cc1cc(Oc2cccc(Br)n2)c(C)cc1N=CN1CCCCC1 [Example 59] | 2.06
66 | Cc1cc(Oc2cccc(Br)n2)c(C)cc1N=CN1CCCC1 [Example 60] | 1.90
67 | CCN(C)C=Nc1cc(C)c(Oc2ccc(C)nc2)cc1C [Example 65] | 0.60
68 | CCN(C)C=Nc1cc(C)c(Oc2cccnc2C)cc1C [Example 66] | 1.56
69 | Cc1cc(Oc2ccnc(Cl)c2)c(C)cc1N=CN1CCCCC1 [Example 70] | 1.66
70 | Cc1cc(Oc2ccnc(Cl)c2)c(C)cc1N=CN1CCCC1 [Example 71] | 1.52
71 | CCCN(C)C=Nc1cc(C)c(Oc2ccnc(Cl)c2)cc1C [Example 72] | 1.56
72 | C=CCN(C)C=Nc1cc(C)c(Oc2ccnc(CC)c2Cl)cc1C [Example 73] | 1.51
73 | CCCN(C)C=Nc1cc(C)c(Oc2ccnc(CC)c2Cl)cc1C [Example 74] | 1.59
74 | CCc1nccc(Oc2cc(C)c(N=CN3CCCCC3)cc2C)c1Cl [Example 75] | 1.56
75 | CCc1nccc(Oc2cc(C)c(N=CN3CCCC3)cc2C)c1Cl [Example 76] | 1.43
76 | Cc1cc(Oc2ccnc(C(F)(F)F)c2)c(C)cc1N=CN1CCCCC1 [Example 79] | 1.78
77 | Cc1cc(Oc2ccnc(C(F)(F)F)c2)c(C)cc1N=CN1CCCC1 [Example 80] | 1.69
78 | C=CCN(C)C=Nc1cc(C)c(Oc2ccnc(Cl)c2)cc1C [Example 81] | 1.74

Same assay, conditions: pH 2.3, C 18

Row | log P (pH 2.3) | Structure (SMILES)
79 | 1.70 | CCN(C)C=Nc1cc(C)c(Oc2cncc(Cl)c2)cc1C [Example 64, N-Ethyl-N-methyl-N′-[4-(3-chlorpyridyl-5-oxy)-2,5-xylyl]formamidine]
80 | 1.47 | CCc1nccc(Oc2cc(C)c(N=CN(C)CC)cc2C)c1Cl [Example 68, N-Ethyl-N-methyl-N′-[4-(2-ethyl-3-chloropyridyl-4-oxy)-2,5-xylyl]form-amidine]

Further lines, the molecule ahead of its results:

Row | Structure (SMILES) | log P (pH 2.3)
81 | CCc1nccc(Oc2cc(C)c(N)cc2C)c1Cl [4-(2-Ethyl-3-chloropyridyl-4-oxy)-2,5-xylidine] | 1.66
82 | Cc1cc([N+](=O)[O-])c(C)cc1Oc1cncc(Cl)c1 [4-(3-chlorpyridyl-5-oxy)-2,5-dimethylnitrobenzene] | 3.61
83 | Cc1cc(Oc2cncc(Cl)c2)c(C)cc1N [4-(3-chlorpyridyl-5-oxy)-2,5-xylidine] | 1.83
84 | CCN(C)C=Nc1cc(C)c(Oc2cc(C(F)(F)F)cc(Cl)n2)cc1C [Example 1, N-Ethyl-N-methyl-N′-[4-(2-chlor-4-trifluormethylpyridyl-6-oxy)-2,5-xylyl]form-amidine] | 2.39
